{
  "source": "patent US10933031B2",
  "about": "“Use of guaiacol for the prevention and treatment of glycogen storage disease” (THE TRUSTEES OF COLUMBIA UNIVERSITY IN THE CITY OF NEW YORK, priority 2016, dated 2021)",
  "key": {"Gbe1^neo/− MEF": {"tested_on": "Gbe1^neo/− MEF", "experiment": "High throughput PAS-fluorescence screen of polyglucosan bodies in GBE-deficient MEF", "type": "cell-based, mouse", "experimental": "Skin fibroblasts from wild type or Gbe1^neo/− E17.5 embryos were cultured to establish the MEF cell line by methods known in the art (FIG. 2). Diastase-resistant PAS positive staining was used specifically for carbohydrate staining. After paraformaldehyde fixation, cells were washed with PBS and normal glycogen was degraded by alpha-amylase digestion. The residual polysaccharides and PG in MEF were treated with periodic acid to oxidize sugars to aldehydes, which react with the Schiff reagent and stain pink. Although PAS staining was very efficient to detect PG (see FIGS. 2A, 2B, 2C, 2E, and 2G), the IN Cell 2000 cell detection system relies on fluorescence staining. PAS staining itself is fluorescent due to pararosanilin reagents, such as Rhodamine and TRITC, which can be excited (400 nm) and emits light detectable in red range ([…]) (FIGS. 2D, 2F and 2H).\nTo set up the automated detection system, control Gbe1^+/+ and Gbe1^neo/− MEFs were plated at different density on 384-well plates in order to obtain optimal cell density. A second important optimization regarded the diastase digestion of normal glycogen, keeping in mind that PGBs are resistant to diastase digestion and longer incubation times and/or higher enzyme concentrations are needed to digest PG. […] After diastase digestion, they were stained with PAS, and, after brief nuclear staining with Hoechst, the plates were analyzed by IN Cell 2000, GE Healthcare (Piscataway, N.J.), a high-throughput imaging system capable of performing high-content analysis using a wide array of micro plates. […] Automated quantitative results were obtained in terms of relative fluorescence per cell. Relative fluorescence per positive cells were analyzed and its significance were determined by z score according to plate average or by B score if there is a positional effect related to row and column that occurs in multi well plate cell cultures (Brideau et al. 2003). […]\n1500 cells were plated per well to 384-well plates. […] The following day the cells were stained and analyzed as set forth in Example 3."}, "MEF": {"tested_on": "MEF", "experiment": "Glycogen content of MEF grown in cobalt supplemented media", "type": "cell-based, mouse", "conditions": "n=3, FIG. 3B", "experimental": "FIGS. 3A-3C show guaiacol decreases glycogen synthesis. […] FIG. 3C is a graph showing the results of relative glycogen content of cells grown in cobalt supplemented media after 3 days of guaiacol treatment at concentrations indicated on horizontal axis.\n(§1) One hit was obtained corresponding to a compound that decreased polyglucosan synthesis more than 50% at 6.75 μM concentration (FIG. 3). […] This compound identified was guaiacol and has been used as an expectorant and flavoring food additive but is no longer being marketed for medical purposes."}, "[1]": {"tested_on": "HepG2 liver epithelial cell line", "experiment": "Glycogen content in HepG2 cells cultured with cobalt chloride", "type": "cell-based", "conditions": "DMEM supplemented with 150 μM cobalt chloride; results not shown", "experimental": "as §1"}, "GYS1": {"tested_on": "GYS1", "experiment": "Western blot of GYS1 phosphorylation in muscle extracts after oral guaiacol", "type": "in vivo, mouse", "conditions": "wild type mice, 45-720 mg/kg oral gavage, muscle extracts two hours after administration", "source_text": "FIG. 4 is a Western blot of GYS1 and GAPDH in muscle extracts obtained from wild type mice two hours after administration with guaiacol, suspended in water, in the indicated dosage amounts on the top panel by oral gavage.\nGlycogen synthase is an allosteric enzyme that can be activated by glucose 6 phosphate or inactivated by phosphorylation of a serine residue on the enzyme. Thus, the phosphorylation status of GYS1 in muscle extracts which is the indicator of glycogen synthase activity was determined.\nWild type mice were administered guaiacol suspended in water at concentrations of 45, 90, 180, 360, and 720 mg/kg. Two hours after administration, muscle extracts were obtained and Western blot analysis of GYS1 was performed."}, "Gbe1^ys/ys mice [2]": {"tested_on": "Gbe1^ys/ys mice", "experiment": "Tissue glycogen content in treated wild type and Gbe1^ys/ys mice", "type": "in vivo, mouse", "experimental": "FIG. 5 is a graph depicting the results of heart, brain, muscle and liver glycogen content in wild type and Gbe1^ys/ys mice, and guaiacol-treated wild-type and Gbe1^ys/ys mice. Glycogen was measured after a 16 hour fast (n=4 for each treatment). Glycogen content is expressed as percent glucose mg/gram fresh tissue. Error bars represent the mean±SD, P<0.001 where indicated (*).\nA mouse model of GBE deficiency created by knocking in via homologous recombination the most common human GBE1 mutation (p.Y329S) found in Ashkenazi Jewish patients has been developed by the inventors and designated Gbe1^ys/ys (Akman et al. 2015).\nAfter one month of treatment, four mice from each group (untreated wild type and Gbe1^ys/ys mice and guaiacol-treated wild type and Gbe1^ys/ys mice) were sacrificed and tissue glycogen contents were measured as described by Pederson et al. 2004."}, "[3]": {"experiment": "Glucose tolerance test (blood glucose)", "type": "in vivo, mouse", "conditions": "after overnight fasting and glucose injection", "experimental": "Blood glucose content was measured at times indicated in guaiacol-treated and untreated wild type and APBD (p.Y329s) mice. n=3 in each group.\nAfter overnight fasting, mice were injected glucose and the blood glucose levels were measured."}, "[4]": {"tested_on": "AMP kinase alpha (AMPK-α)", "experiment": "Western blot of AMP kinase Thr 172 phosphorylation", "type": "in vivo, mouse", "conditions": "tissue extracts of treated wild type and Gbe1^ys/ys mice, relative to total AMPK-α", "source_text": "FIG. 7 is a Western blot of phospho AMPK-α and total AMPK in muscle extracts obtained from wild type and Gbe1^ys/ys mice, and guaiacol-treated wild type and Gbe1^ys/ys mice.\nGlycogen synthesis and breakdown is regulated according to the energy state of the cell. When glucose is abundant amount of ATP is high and AMP kinase remains un-phosphorylated. However when glucose concentrations go down so do the ATP levels because it is being converted to ADP and AMP."}, "[5]": {"experiment": "HPLC of AMP, ADP, ATP and adenosine in muscle extracts", "type": "in vivo, mouse", "conditions": "for decrease in adenosine levels: muscle", "source_text": "FIG. 8 is a graph depicting results of high performance liquid chromatography analysis of adenosine in muscle of wild type and Gbe1^ys/ys mice, and guaiacol-treated wild type and Gbe1^ys/ys mice.\n[…], the heterotrimeric protein AMPK is formed by α, β, and γ subunits. Each of these three subunits takes on a specific role in both the stability and activity of AMPK. (Stapleton et al. 1996). Specifically, the γ subunit includes four particular cystathionine beta synthase (CBS) domains giving AMPK its ability to sensitively detect shifts in the AMP: ATP ratio. The four CBS domains create two binding sites for AMP commonly referred to as Bateman domains. Binding of one AMP to a Bateman domain cooperatively increases the binding affinity of the second AMP to the other Bateman domain (Akman et al. 2007)."}, "Gbe1^ys/ys mice [6]": {"tested_on": "Gbe1^ys/ys mice", "experiment": "Lifespan and disease signs of Gbe1^ys/ys mice on guaiacol in drinking water", "type": "in vivo, mouse", "experimental": "FIG. 9 is a Kaplan-Meier plot which illustrates the incidence of death in Gbe1^ys/ys (n=47), versus wild type mice (n=29), and guaiacol-treated Gbe1^ys/ys and wild type mice (n=4 each).\n(§2) Mice were treated with guaiacol in drinking water for 12 months every other day by preparing fresh guaiacol solution in water (3.8 g/liter or 3.1 ml/liter) considering the fact that an adult mouse drinks 6 ml water every day (Bachamov et al. 2002).\nTreated Gbe1^ys/ys mice lived up to 24 months at time they were sacrificed as required by the protocol (FIG. 9)."}, "[7]": {"experiment": "Tolerability: grip tests and weight gain or loss", "type": "in vivo, mouse", "conditions": "22.5 mg/kg in drinking water", "experimental": "as §2"}, "[8]": {"conditions": "one month of treatment, 16 hour fast, n=4"}, "[9]": {"conditions": "treated Gbe1^ys/ys mice, long-term treatment"}},
  "note": "Entries after “also recorded” stand apart in the source; their conditions may differ.",
  "data": [
    {"smiles": "COc1ccccc1O", "note": "[guaiacol]", "values": [
      {"measurement": "decrease of polyglucosan synthesis", "setting": "Gbe1^neo/− MEF; 6.75 μM, three days treatment, JHCCL screen", "value": "more than 50%"},
      {"measurement": "PAS stained granules in the cytosol (diastase treated)", "setting": "Gbe1^neo/− MEF; 10 μM guaiacol, MEF cultures, FIG. 3A", "value": "decreased PAS stained granules"},
      {"measurement": "decrease of polyglucosan synthesis and accumulation", "setting": "Gbe1^neo/− MEF; JHCCL screen, concentration not stated", "value": 50, "unit": "%"},
      {"measurement": "glycogen content in MEF", "setting": "MEF", "value": "decrease of glycogen content"},
      {"measurement": "glycogen content in HepG2", "setting": "[1]", "value": "decreased glycogen content"},
      {"measurement": "phosphorylation of GYS1 compared to total GYS1 protein", "setting": "GYS1", "value": "increased"},
      {"measurement": "glycogen in brain, muscle and heart", "setting": "Gbe1^ys/ys mice [2]; as restated in Example 7", "value": "increased"},
      {"measurement": "glycogen content in the brain and muscle compared to untreated Gbe1^ys/ys mice", "setting": "Gbe1^ys/ys mice [2]; later treatments, treated Gbe1^ys/ys mice", "value": "slight increase"},
      {"measurement": "glycogen content in brain heart and muscle", "setting": "Gbe1^ys/ys mice [2]; [8]", "value": "did not change"},
      {"measurement": "glycogen content of the liver", "setting": "Gbe1^ys/ys mice [2]; [8]", "value": "significant decrease; also recorded: decreased"},
      {"measurement": "duration of high blood glucose versus control mice", "setting": "[3]", "value": "remained high longer"},
      {"measurement": "blood glucose level versus control mice", "setting": "[3]; wild type and APBD (p.Y329s) mice, n=3", "value": "higher blood glucose; also recorded: increases blood glucose concentration"},
      {"measurement": "Thr 172 phosphorylation of AMP kinase", "setting": "[4]", "value": "increased Thr 172 phosphorylation"},
      {"measurement": "AMP, ADP and ATP levels", "setting": "[5]; muscle extracts, treated vs untreated wild type or Gbe1^ys/ys mice", "value": "no significant difference"},
      {"measurement": "decrease in adenosine levels", "setting": "[5]; Gbe1^ys/ys mice, n=4, p<0.03", "value": 48, "unit": "%"},
      {"measurement": "decrease in adenosine levels", "setting": "[5]; wild-type mice, n=4, p<0.02", "value": 53, "unit": "%"},
      {"measurement": "lifespan of treated mice", "setting": "Gbe1^ys/ys mice [6]; Gbe1^ys/ys mice, guaiacol in drinking water, sacrificed at 24 months as required by protocol", "value": "up to 24 months"},
      {"measurement": "gait of treated mice", "setting": "Gbe1^ys/ys mice [6]; treated Gbe1^ys/ys mice", "value": "spastic gait"},
      {"measurement": "penile prolapse in male mice", "setting": "Gbe1^ys/ys mice [6]; treated Gbe1^ys/ys mice", "value": "did not have penile prolapse; also recorded: preventing penile prolapse"},
      {"measurement": "PG content in the liver", "setting": "Gbe1^ys/ys mice [6]; [9]", "value": "decreased PG content"},
      {"measurement": "polyglucosan in the muscle brain and heart", "setting": "Gbe1^ys/ys mice [6]; [9]", "value": "slightly higher polyglucosan"},
      {"measurement": "effect on animal behavior (grip tests, weight gain or loss)", "setting": "[7]", "value": "did not adversely affect the animal's behavior"}
    ]}
  ]
}
